The subject of the experiment is MV-4-11 cells. The experiment in a line: Gene expression microarray analysis (Affymetrix PrimeView) and GSEA. To be noted: ProbeSet 11716865_a_at; LIST B. Also noted: RFU PODN (11730768_x_at) / Fold change /veh PODN (11730768_x_at) / RFU LINC00158 (11744669_a_at) / Fold change /veh LINC00158 (11744669_a_at) / RFU DUSP10 (11751237_a_at) / Fold change /veh DUSP10 (11751237_a_at) / RFU ID3 (11757404_x_at) / Fold change /veh ID3 (11757404_x_at) / RFU PLEKHG5 (11737974_s_at) / Fold change /veh PLEKHG5 (11737974_s_at) / RFU LRRC4B (11730491_at) / Fold change /veh LRRC4B (11730491_at) / RFU GIMAP4 (11747438_a_at) / Fold change /veh GIMAP4 (11747438_a_at) / RFU KRT8 (11758183_x_at) / Fold change /veh KRT8 (11758183_x_at) / RFU CNN1 (11734310_a_at) / Fold change /veh CNN1 (11734310_a_at) / RFU VPS37D (11726825_at) / Fold change /veh VPS37D (11726825_at) / RFU C10orf10 (11716522_x_at) / Fold change /veh C10orf10 (11716522_x_at) / RFU KIR2DL2 /// KIR2DL4 /// KIR2DL5A /// KIR2DL5B /// KIR2DS1 /// KIR2DS2 /// KIR2DS3 /// KIR2DS4 /// KIR3DL3 /// KIR3DL3 /// KIR3DS1 (11738374_at) / Fold change /veh KIR2DL2 /// KIR2DL4 /// KIR2DL5A /// KIR2DL5B /// KIR2DS1 /// KIR2DS2 /// KIR2DS3 /// KIR2DS4 /// KIR3DL3 /// KIR3DL3 /// KIR3DS1 (11738374_at) / RFU C1QL1 (11718748_at) / Fold change /veh C1QL1 (11718748_at) / RFU TMPRSS4 (11747572_a_at) / Fold change /veh TMPRSS4 (11747572_a_at) / RFU HAMP (11756126_x_at) / Fold change /veh HAMP (11756126_x_at) / RFU RNFT2 (11725882_a_at) / Fold change /veh RNFT2 (11725882_a_at) / RFU NR4A2 (11747474_a_at) / Fold change /veh NR4A2 (11747474_a_at) / RFU ABCC12 (11746883_a_at) / Fold change /veh ABCC12 (11746883_a_at) / RFU TMEM136 (11760407_x_at) / Fold change /veh TMEM136 (11760407_x_at) / RFU CLDN22 /// WWC2 (11732394_at) / Fold change /veh CLDN22 /// WWC2 (11732394_at) / RFU HLA-DPB1 (11760878_x_at) / Fold change /veh HLA-DPB1 (11760878_x_at) / RFU SPINT1 (11716480_a_at) / Fold change /veh SPINT1 (11716480_a_at) / RFU GAP43 (11754022_s_at) / Fold change /veh GAP43 (11754022_s_at) / RFU A4GNT (11735810_at) / Fold change /veh A4GNT (11735810_at) / RFU PRB3 (11715151_x_at) / Fold change /veh PRB3 (11715151_x_at) / RFU TUBB4B (11761932_at) / Fold change /veh TUBB4B (11761932_at) / RFU CAPN14 (11732068_a_at) / Fold change /veh CAPN14 (11732068_a_at) / RFU TMCC2 (11721928_a_at) / Fold change /veh TMCC2 (11721928_a_at) / RFU IRGQ (11745062_a_at) / Fold change /veh IRGQ (11745062_a_at) / RFU FAM174B (11720279_a_at) / Fold change /veh FAM174B (11720279_a_at) / RFU TMPRSS4 (11748680_a_at) / Fold change /veh TMPRSS4 (11748680_a_at) / RFU FAM212B (11763350_a_at) / Fold change /veh FAM212B (11763350_a_at) / RFU PLEKHG5 (11743358_a_at) / Fold change /veh PLEKHG5 (11743358_a_at) / RFU ZSCAN30 (11745921_a_at) / Fold change /veh ZSCAN30 (11745921_a_at) / RFU CMKLR1 (11741424_a_at) / Fold change /veh CMKLR1 (11741424_a_at) / RFU LOC101060620 /// MAPK8IP1 (11723275_at) / Fold change /veh LOC101060620 /// MAPK8IP1 (11723275_at) / RFU SPTSSB (11747773_x_at) / Fold change /veh SPTSSB (11747773_x_at) / RFU PRSS12 (11739890_at) / Fold change /veh PRSS12 (11739890_at) / RFU BIN1 (11741810_x_at) / Fold change /veh BIN1 (11741810_x_at) / RFU WNT11 (11732464_a_at) / Fold change /veh WNT11 (11732464_a_at) / RFU C10orf10 (11716521_a_at) / Fold change /veh C10orf10 (11716521_a_at) / RFU C5orf56 (11738089_at) / Fold change /veh C5orf56 (11738089_at) / RFU CYB561 (11721691_x_at) / Fold change /veh CYB561 (11721691_x_at) / RFU ANKRD19P (11752326_a_at) / Fold change /veh ANKRD19P (11752326_a_at) / RFU OR2T12 /// OR2T33 /// OR2T8 (11738714_s_at) / Fold change /veh OR2T12 /// OR2T33 /// OR2T8 (11738714_s_at) / RFU VCAN (11748164_a_at) / Fold change /veh VCAN (11748164_a_at) / RFU JSRP1 (11732532_at) / Fold change /veh JSRP1 (11732532_at) / RFU KRTAP10-11 (11738290_x_at) / Fold change /veh KRTAP10-11 (11738290_x_at) / RFU MYO3A (11730013_a_at) / Fold change /veh MYO3A (11730013_a_at) / RFU EBF3 (11725865_a_at) / Fold change /veh EBF3 (11725865_a_at) / RFU CAMK2N1 (11719241_x_at) / Fold change /veh CAMK2N1 (11719241_x_at) / RFU C5orf56 (11738088_a_at) / Fold change /veh C5orf56 (11738088_a_at) / RFU OLFML3 (11715873_a_at) / Fold change /veh OLFML3 (11715873_a_at) / RFU LOC100653217 /// NTM (11731650_a_at) / Fold change /veh LOC100653217 /// NTM (11731650_a_at) / RFU MAPK11 (11762145_a_at) / Fold change /veh MAPK11 (11762145_a_at) / RFU FIZ1 (11724087_x_at) / Fold change /veh FIZ1 (11724087_x_at) / RFU OASL (11726364_x_at) / Fold change /veh OASL (11726364_x_at) / RFU SOX15 (11748057_x_at) / Fold change /veh SOX15 (11748057_x_at) / RFU CD79A (11719716_a_at) / Fold change /veh CD79A (11719716_a_at) / RFU HIST1H1D (11736915_at) / Fold change /veh HIST1H1D (11736915_at) / RFU CASKIN2 (11723855_a_at) / Fold change /veh CASKIN2 (11723855_a_at) / RFU LOC730098 (11760151_x_at) / Fold change /veh LOC730098 (11760151_x_at) / RFU OR4N2 (11742367_at) / Fold change /veh OR4N2 (11742367_at) / RFU PRRT2 (11749266_a_at) / Fold change /veh PRRT2 (11749266_a_at) / RFU SNX32 (11753110_a_at) / Fold change /veh SNX32 (11753110_a_at) / RFU CDHR5 (11726645_a_at) / Fold change /veh CDHR5 (11726645_a_at) / RFU RCAN1 (11760418_a_at) / Fold change /veh RCAN1 (11760418_a_at) / RFU FAM167A (11723789_a_at) / Fold change /veh FAM167A (11723789_a_at) / RFU FAM26E (11764081_at) / Fold change /veh FAM26E (11764081_at) / RFU ISYNA1 (11749810_s_at) / Fold change /veh ISYNA1 (11749810_s_at) / RFU ACY1 (11761880_at) / Fold change /veh ACY1 (11761880_at) / RFU 11764098_at / Fold change /veh 11764098_at / RFU SAMD14 (11745864_x_at) / Fold change /veh SAMD14 (11745864_x_at) / RFU NPB (11741838_a_at) / Fold change /veh NPB (11741838_a_at) / RFU TMPRSS6 (11731388_a_at) / Fold change /veh TMPRSS6 (11731388_a_at) / RFU KRTAP10-2 (11738614_at) / Fold change /veh KRTAP10-2 (11738614_at) / RFU ARHGAP8 /// PRR5-ARHGAP8 (11727945_x_at) / Fold change /veh ARHGAP8 /// PRR5-ARHGAP8 (11727945_x_at) / RFU KRTAP5-7 /// NADSYN1 (11734609_at) / Fold change /veh KRTAP5-7 /// NADSYN1 (11734609_at) / RFU RASL12 (11751679_a_at) / Fold change /veh RASL12 (11751679_a_at) / RFU CDKN2B (11736163_a_at) / Fold change /veh CDKN2B (11736163_a_at) / RFU PRF1 (11729649_at) / Fold change /veh PRF1 (11729649_at) / RFU, ZNF638 /// ZNF638-IT1 / Fold change vs veh, ZNF638 /// ZNF638-IT1 / RFU, PANK3 / Fold change vs veh, PANK3 / RFU, SH3YL1 / Fold change vs veh, SH3YL1 / RFU, ZEB2 / Fold change vs veh, ZEB2 / RFU, NRIP1 / Fold change vs veh, NRIP1 / RFU, PTTG1IP / Fold change vs veh, PTTG1IP / RFU, CAPN2 / Fold change vs veh, CAPN2 / RFU, MED14 / Fold change vs veh, MED14 / RFU, SNORA58 / Fold change vs veh, SNORA58 / RFU, C1orf63 / Fold change vs veh, C1orf63 / RFU, LRRFIP1 / Fold change vs veh, LRRFIP1 / RFU, NDUFAF7 / Fold change vs veh, NDUFAF7 / RFU, SLC12A2 / Fold change vs veh, SLC12A2 / RFU, IBTK / Fold change vs veh, IBTK / RFU, ESF1 / Fold change vs veh, ESF1 / Fold change vs veh, TMEM50B / RFU, TAOK1 / Fold change vs veh, TAOK1 / RFU, ACBD3 / Fold change vs veh, ACBD3 / RFU, TMA16 / Fold change vs veh, TMA16 / RFU, RWDD3 / Fold change vs veh, RWDD3 / RFU, BCAT1 / Fold change vs veh, BCAT1 / RFU, EDEM3 / Fold change vs veh, EDEM3 / RFU, TMEM33 / Fold change vs veh, TMEM33 / RFU, WDR75 / Fold change vs veh, WDR75 / RFU, AHCTF1 / Fold change vs veh, AHCTF1 / RFU, TFRC / Fold change vs veh, TFRC / RFU, ZDHHC17 / Fold change vs veh, ZDHHC17 / RFU, NOM1 / Fold change vs veh, NOM1 / RFU, ARL8B / Fold change vs veh, ARL8B / RFU, ZBTB11 / Fold change vs veh, ZBTB11 / RFU, TAMM41 / Fold change vs veh, TAMM41 / RFU, KIAA1704 /// LOC100996395 / Fold change vs veh, KIAA1704 /// LOC100996395 / RFU, ING1 / Fold change vs veh, ING1 / RFU, TRMT61B / Fold change vs veh, TRMT61B / RFU, FUBP3 / Fold change vs veh, FUBP3 / RFU, TP53 / Fold change vs veh, TP53 / RFU, TNKS2 / Fold change vs veh, TNKS2 / RFU, ZFP14 / Fold change vs veh, ZFP14 / RFU, ACTR2 / Fold change vs veh, ACTR2 / RFU, PPP3R1 / Fold change vs veh, PPP3R1 / RFU, PIK3R1 / Fold change vs veh, PIK3R1 / RFU, HNRNPA1 / Fold change vs veh, HNRNPA1 / RFU, RNF170 / Fold change vs veh, RNF170 / RFU, ZNF28 / Fold change vs veh, ZNF28 / RFU, RNGTT / Fold change vs veh, RNGTT / RFU, OGT / Fold change vs veh, OGT / RFU, BRD1 / Fold change vs veh, BRD1 / RFU, MARS / Fold change vs veh, MARS / RFU, ZNF655 / Fold change vs veh, ZNF655 / RFU, FAHD1 / Fold change vs veh, FAHD1 / RFU, BDP1 / Fold change vs veh, BDP1 / RFU, LRRCC1 / Fold change vs veh, LRRCC1 / RFU, ARID1A / Fold change vs veh, ARID1A / RFU, ZNF146 / Fold change vs veh, ZNF146 / RFU, ZNF330 / Fold change vs veh, ZNF330 / RFU, GPN3 / Fold change vs veh, GPN3 / RFU, C9orf123 / Fold change vs veh, C9orf123 / RFU, N4BP2L2 / Fold change vs veh, N4BP2L2 / RFU, ARFIP1 / Fold change vs veh, ARFIP1 / RFU, FAM179B / Fold change vs veh, FAM179B / RFU, BCL10 / Fold change vs veh, BCL10 / RFU, UHRF1BP1L / Fold change vs veh, UHRF1BP1L / RFU, BET1 / Fold change vs veh, BET1 / RFU, CNOT2 / Fold change vs veh, CNOT2 / RFU, ZNF268 / Fold change vs veh, ZNF268 / Fold change vs veh, ZNF507 / RFU, DGCR2 / Fold change vs veh, DGCR2 / RFU, WDSUB1 / Fold change vs veh, WDSUB1 / Fold change vs veh, HSP90B1 /// MIR3652 / RFU, ADSS / Fold change vs veh, ADSS / RFU, GK / Fold change vs veh, GK / RFU, ZNF148 / Fold change vs veh, ZNF148 / RFU, TAF9 / Fold change vs veh, TAF9 / RFU, SLC1A5 / Fold change vs veh, SLC1A5 / RFU, SLMO2 / Fold change vs veh, SLMO2 / RFU, ABCC4 / Fold change vs veh, ABCC4 / RFU, LOC101060439 /// RAP1B / Fold change vs veh, LOC101060439 /// RAP1B / RFU, RFX7 / Fold change vs veh, RFX7 / RFU, GTPBP10 / Fold change vs veh, GTPBP10 / RFU, CNEP1R1 / Fold change vs veh, CNEP1R1 / RFU, BIVM-ERCC5 /// ERCC5 / Fold change vs veh, BIVM-ERCC5 /// ERCC5 / RFU, ILF3 / Fold change vs veh, ILF3 / RFU 11762660_at / Fold change /veh 11762660_at / RFU VCAN (11757783_s_at) / Fold change /veh VCAN (11757783_s_at) / RFU DDX43 (11728927_at) / Fold change /veh DDX43 (11728927_at) / RFU KRT8 (11758188_x_at) / Fold change /veh KRT8 (11758188_x_at) / RFU NKD1 (11759106_at) / Fold change /veh NKD1 (11759106_at) / RFU SRD5A1 (11742802_a_at) / Fold change /veh SRD5A1 (11742802_a_at) / RFU TPSAB1 /// TPSB2 (11721975_s_at) / Fold change /veh TPSAB1 /// TPSB2 (11721975_s_at) / RFU GSTM3 (11746129_a_at) / Fold change /veh GSTM3 (11746129_a_at) / RFU IL23R (11737362_x_at) / Fold change /veh IL23R (11737362_x_at) / RFU TMEM51 (11727254_a_at) / Fold change /veh TMEM51 (11727254_a_at) / RFU PIWIL2 (11732686_x_at) / Fold change /veh PIWIL2 (11732686_x_at) / RFU ORM1 (11744905_x_at) / Fold change /veh ORM1 (11744905_x_at) / RFU CCDC152 (11743942_at) / Fold change /veh CCDC152 (11743942_at) / RFU ECM1 (11717891_a_at) / Fold change /veh ECM1 (11717891_a_at) / RFU IL23R (11748794_a_at) / Fold change /veh IL23R (11748794_a_at) / RFU TNFAIP8L3 (11732012_x_at) / Fold change /veh TNFAIP8L3 (11732012_x_at) / RFU MBOAT4 (11741988_at) / Fold change /veh MBOAT4 (11741988_at) / RFU 11764193_at / Fold change /veh 11764193_at / RFU TMEM53 (11763286_at) / Fold change /veh TMEM53 (11763286_at) / RFU MAGEB2 (11727129_at) / Fold change /veh MAGEB2 (11727129_at) / RFU TMEM200A (11744735_a_at) / Fold change /veh TMEM200A (11744735_a_at) / RFU CCDC152 (11751479_a_at) / Fold change /veh CCDC152 (11751479_a_at) / RFU FAM211A (11726209_a_at) / Fold change /veh FAM211A (11726209_a_at) / RFU RGS16 (11746705_a_at) / Fold change /veh RGS16 (11746705_a_at) / RFU VCAN (11755009_s_at) / Fold change /veh VCAN (11755009_s_at) / RFU RHOB (11743442_s_at) / Fold change /veh RHOB (11743442_s_at) / RFU RGS16 (11720943_a_at) / Fold change /veh RGS16 (11720943_a_at) / RFU RGS16 (11720944_at) / Fold change /veh RGS16 (11720944_at) / RFU, VPS4B / Fold change vs veh, VPS4B / RFU, CREB1 / Fold change vs veh, CREB1 / RFU, DNAJC13 / Fold change vs veh, DNAJC13 / RFU, GNAQ / Fold change vs veh, GNAQ / RFU, CDK5R1 / Fold change vs veh, CDK5R1 / RFU, ZRANB3 / Fold change vs veh, ZRANB3 / RFU, CUL4A / Fold change vs veh, CUL4A / RFU, CCNY / Fold change vs veh, CCNY / RFU, UFL1 / Fold change vs veh, UFL1 / RFU, COG3 / Fold change vs veh, COG3 / RFU, DIAPH2 / Fold change vs veh, DIAPH2 / RFU, SKA2 / Fold change vs veh, SKA2 / RFU, AFF3 / Fold change vs veh, AFF3 / RFU, LMF1 / Fold change vs veh, LMF1 / RFU, IPO11 / Fold change vs veh, IPO11 / RFU, DFFB / Fold change vs veh, DFFB / RFU, FOXP1 / Fold change vs veh, FOXP1 / RFU, CARD8 / Fold change vs veh, CARD8 / RFU, STRN3 / Fold change vs veh, STRN3 / RFU, ADK / Fold change vs veh, ADK / RFU, RASSF2 / Fold change vs veh, RASSF2 / RFU, WIPF1 / Fold change vs veh, WIPF1 / RFU, LARP1B / Fold change vs veh, LARP1B / RFU, RASA1 / Fold change vs veh, RASA1 / RFU, RB1 / Fold change vs veh, RB1 / RFU, PPFIA1 / Fold change vs veh, PPFIA1 / RFU, MAT2A / Fold change vs veh, MAT2A / RFU, CCT5 / Fold change vs veh, CCT5 / RFU, WDR92 / Fold change vs veh, WDR92 / RFU, CUX1 / Fold change vs veh, CUX1 / RFU, TTC7A / Fold change vs veh, TTC7A / RFU, TMEM135 / Fold change vs veh, TMEM135 / RFU, DEPTOR / Fold change vs veh, DEPTOR / RFU, CPM / Fold change vs veh, CPM / RFU, DNAJB6 / Fold change vs veh, DNAJB6 / RFU, CACNA2D3 / Fold change vs veh, CACNA2D3 / RFU, DTX4 / Fold change vs veh, DTX4 / RFU, TFCP2 / Fold change vs veh, TFCP2 / RFU, GMCL1 /// GMCL1P1 / Fold change vs veh, GMCL1 /// GMCL1P1 / RFU, AEBP2 / Fold change vs veh, AEBP2 / RFU, SNHG1 /// SNORD22 /// SNORD25 /// SNORD26 /// SNORD27 /// SNORD28 /// SNORD29 /// SNORD31 / Fold change vs veh, SNHG1 /// SNORD22 /// SNORD25 /// SNORD26 /// SNORD27 /// SNORD28 /// SNORD29 /// SNORD31 / Fold change (Aza/veh), C12orf56 (ProbeSet 11735607_a_at) / Fold change (ACY-1035/veh), C12orf56 (ProbeSet 11735607_a_at) / Fold change (Aza/veh), FGFR1OP (ProbeSet 11751329_s_at) / Fold change (ACY-1035/veh), FGFR1OP (ProbeSet 11751329_s_at) / Fold change (Aza/veh), VPS36 (ProbeSet 11739960_a_at) / Fold change (ACY-1035/veh), VPS36 (ProbeSet 11739960_a_at) / RFU SYPL1 (11715823_x_at) / Fold change /veh SYPL1 (11715823_x_at) / RFU IGFBP7 (11715501_s_at) / Fold change /veh IGFBP7 (11715501_s_at) / RFU REEP3 (11722064_at) / Fold change /veh REEP3 (11722064_at) / RFU IGLL1 (11728026_x_at) / Fold change /veh IGLL1 (11728026_x_at): dose or concentration left out as unconfirmed. Type of experiment: cell-based, human.

We go through one molecule from PMC5218480 (PLoS ONE, 2017).

With `Nc1ccc(-c2cccs2)cc1NC(=O)c1ccc2c(c1)cc(C1CC1)n2CCN1CCOCC1` [ACY-1035], the “Fold change vs veh, SLC1A5” value is reported as 0.85.
